US12281080B2, “Quinoline-based compounds and methods of inhibiting CDK8/19” (University of South Carolina, priority 2018, dated 2025)

Assays:
Assay in all cases: KINOMEscan scanMAX
Type in all cases: binding
Conditions in all cases: 2000 nM; read-out: Percent Control
FER = FER (Homo sapiens (Human), UniProt P16591)
PRKG2 = PRKG2 (Homo sapiens (Human), UniProt Q13237)
PIK3CA(C420R) = PIK3CA(C420R) (Homo sapiens (Human), UniProt P42336, C420R)
LIMK2 = LIMK2 (Homo sapiens (Human), UniProt P53671)
AMPK-alpha2 (PRKAA2) = AMPK-alpha2 (PRKAA2) (Homo sapiens (Human), UniProt P54646)
PRKCI = PRKCI (Homo sapiens (Human), UniProt P41743)
CSNK1E = CSNK1E (Homo sapiens (Human), UniProt P49674)
CSNK1E, sequence (P49674 whole entry): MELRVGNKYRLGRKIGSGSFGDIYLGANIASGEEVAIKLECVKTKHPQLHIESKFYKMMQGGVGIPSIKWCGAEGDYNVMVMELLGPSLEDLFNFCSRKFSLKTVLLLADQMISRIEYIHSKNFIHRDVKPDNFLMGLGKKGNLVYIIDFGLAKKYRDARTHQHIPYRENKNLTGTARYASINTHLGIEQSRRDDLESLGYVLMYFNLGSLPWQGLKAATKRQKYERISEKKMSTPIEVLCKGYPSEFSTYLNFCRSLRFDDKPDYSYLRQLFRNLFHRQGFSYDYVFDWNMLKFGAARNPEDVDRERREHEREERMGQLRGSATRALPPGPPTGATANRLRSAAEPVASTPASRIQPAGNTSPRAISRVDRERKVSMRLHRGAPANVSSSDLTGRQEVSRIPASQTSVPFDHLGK

ASK1 (MAP3K5) = ASK1 (MAP3K5) (Homo sapiens (Human), UniProt Q99683)
IGF1R = IGF1R (Homo sapiens (Human), UniProt P08069)
CAMK1B (PNCK) = CAMK1B (PNCK) (Homo sapiens (Human), UniProt Q6P2M8)
WNK4 = WNK4 (Homo sapiens (Human), UniProt Q96J92)
PIK3CB = PIK3CB (Homo sapiens (Human), UniProt P42338)
IRAK3 = IRAK3 (Homo sapiens (Human), UniProt Q9Y616)
TLK1 = TLK1 (Homo sapiens (Human), UniProt Q9UKI8)
KIT(D816V) = KIT(D816V) (Homo sapiens (Human), UniProt P10721, D816V)
EPHA7 = EPHA7 (Homo sapiens (Human), UniProt Q15375)
EPHA7, sequence (Q15375 28-998): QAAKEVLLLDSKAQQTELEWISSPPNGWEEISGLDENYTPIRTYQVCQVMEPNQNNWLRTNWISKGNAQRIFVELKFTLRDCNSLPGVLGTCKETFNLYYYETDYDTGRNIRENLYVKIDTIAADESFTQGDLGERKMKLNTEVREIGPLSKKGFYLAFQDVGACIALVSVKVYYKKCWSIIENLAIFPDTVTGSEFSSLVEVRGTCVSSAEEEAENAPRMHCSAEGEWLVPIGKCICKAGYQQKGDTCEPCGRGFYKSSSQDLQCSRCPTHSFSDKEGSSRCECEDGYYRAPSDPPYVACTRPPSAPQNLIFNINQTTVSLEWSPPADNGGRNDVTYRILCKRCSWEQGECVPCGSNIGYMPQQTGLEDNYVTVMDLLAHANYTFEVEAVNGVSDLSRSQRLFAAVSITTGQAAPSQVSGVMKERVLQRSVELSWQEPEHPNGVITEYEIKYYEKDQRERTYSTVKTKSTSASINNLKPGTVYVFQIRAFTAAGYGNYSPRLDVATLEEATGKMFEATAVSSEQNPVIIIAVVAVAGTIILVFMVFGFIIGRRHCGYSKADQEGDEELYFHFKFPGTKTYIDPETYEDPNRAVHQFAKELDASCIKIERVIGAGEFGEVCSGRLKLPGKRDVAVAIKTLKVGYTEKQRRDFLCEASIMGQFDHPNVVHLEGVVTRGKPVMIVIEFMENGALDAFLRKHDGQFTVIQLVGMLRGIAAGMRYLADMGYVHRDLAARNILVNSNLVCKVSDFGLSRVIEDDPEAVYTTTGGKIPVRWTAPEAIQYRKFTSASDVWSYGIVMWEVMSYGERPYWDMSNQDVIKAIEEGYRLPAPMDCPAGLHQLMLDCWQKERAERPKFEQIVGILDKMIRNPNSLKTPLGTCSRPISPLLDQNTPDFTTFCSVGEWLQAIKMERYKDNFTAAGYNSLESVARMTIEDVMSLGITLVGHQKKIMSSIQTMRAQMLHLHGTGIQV

WNK3 = WNK3 (Homo sapiens (Human), UniProt Q9BYP7)
LIMK1 = LIMK1 (Homo sapiens (Human), UniProt P53667)
MAP4K5 = MAP4K5 (Homo sapiens (Human), UniProt Q9Y4K4)
MAP4K5, sequence (Q9Y4K4 whole entry): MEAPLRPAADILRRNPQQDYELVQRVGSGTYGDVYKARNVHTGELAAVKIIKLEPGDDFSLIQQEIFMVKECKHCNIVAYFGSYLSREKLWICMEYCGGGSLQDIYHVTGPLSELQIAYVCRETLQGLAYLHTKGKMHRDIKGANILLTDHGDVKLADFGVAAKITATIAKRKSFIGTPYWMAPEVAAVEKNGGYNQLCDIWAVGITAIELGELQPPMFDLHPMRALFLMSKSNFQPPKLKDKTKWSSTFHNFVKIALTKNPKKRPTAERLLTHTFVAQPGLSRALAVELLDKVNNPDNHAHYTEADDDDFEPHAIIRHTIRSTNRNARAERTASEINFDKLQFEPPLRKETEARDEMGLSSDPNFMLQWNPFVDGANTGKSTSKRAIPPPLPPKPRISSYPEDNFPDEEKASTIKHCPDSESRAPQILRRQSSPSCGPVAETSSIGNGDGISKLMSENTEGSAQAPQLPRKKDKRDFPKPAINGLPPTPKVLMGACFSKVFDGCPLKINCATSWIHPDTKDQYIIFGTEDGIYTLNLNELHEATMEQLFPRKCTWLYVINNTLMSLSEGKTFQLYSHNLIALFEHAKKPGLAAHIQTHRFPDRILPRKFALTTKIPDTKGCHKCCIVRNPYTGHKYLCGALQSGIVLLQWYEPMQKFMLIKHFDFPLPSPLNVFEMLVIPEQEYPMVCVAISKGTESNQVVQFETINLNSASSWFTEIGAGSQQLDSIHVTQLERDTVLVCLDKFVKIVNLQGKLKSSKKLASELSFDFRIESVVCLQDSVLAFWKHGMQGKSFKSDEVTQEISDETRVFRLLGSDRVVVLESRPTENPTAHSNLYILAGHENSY

PRP4 (PRPF4B) = PRP4 (PRPF4B) (Homo sapiens (Human), UniProt Q13523)
PIK3CA(I800L) = PIK3CA(I800L) (Homo sapiens (Human), UniProt P42336, I800L)
ALK = ALK (Homo sapiens (Human), UniProt Q9UM73)
ALK, sequence (Q9UM73 19-1620): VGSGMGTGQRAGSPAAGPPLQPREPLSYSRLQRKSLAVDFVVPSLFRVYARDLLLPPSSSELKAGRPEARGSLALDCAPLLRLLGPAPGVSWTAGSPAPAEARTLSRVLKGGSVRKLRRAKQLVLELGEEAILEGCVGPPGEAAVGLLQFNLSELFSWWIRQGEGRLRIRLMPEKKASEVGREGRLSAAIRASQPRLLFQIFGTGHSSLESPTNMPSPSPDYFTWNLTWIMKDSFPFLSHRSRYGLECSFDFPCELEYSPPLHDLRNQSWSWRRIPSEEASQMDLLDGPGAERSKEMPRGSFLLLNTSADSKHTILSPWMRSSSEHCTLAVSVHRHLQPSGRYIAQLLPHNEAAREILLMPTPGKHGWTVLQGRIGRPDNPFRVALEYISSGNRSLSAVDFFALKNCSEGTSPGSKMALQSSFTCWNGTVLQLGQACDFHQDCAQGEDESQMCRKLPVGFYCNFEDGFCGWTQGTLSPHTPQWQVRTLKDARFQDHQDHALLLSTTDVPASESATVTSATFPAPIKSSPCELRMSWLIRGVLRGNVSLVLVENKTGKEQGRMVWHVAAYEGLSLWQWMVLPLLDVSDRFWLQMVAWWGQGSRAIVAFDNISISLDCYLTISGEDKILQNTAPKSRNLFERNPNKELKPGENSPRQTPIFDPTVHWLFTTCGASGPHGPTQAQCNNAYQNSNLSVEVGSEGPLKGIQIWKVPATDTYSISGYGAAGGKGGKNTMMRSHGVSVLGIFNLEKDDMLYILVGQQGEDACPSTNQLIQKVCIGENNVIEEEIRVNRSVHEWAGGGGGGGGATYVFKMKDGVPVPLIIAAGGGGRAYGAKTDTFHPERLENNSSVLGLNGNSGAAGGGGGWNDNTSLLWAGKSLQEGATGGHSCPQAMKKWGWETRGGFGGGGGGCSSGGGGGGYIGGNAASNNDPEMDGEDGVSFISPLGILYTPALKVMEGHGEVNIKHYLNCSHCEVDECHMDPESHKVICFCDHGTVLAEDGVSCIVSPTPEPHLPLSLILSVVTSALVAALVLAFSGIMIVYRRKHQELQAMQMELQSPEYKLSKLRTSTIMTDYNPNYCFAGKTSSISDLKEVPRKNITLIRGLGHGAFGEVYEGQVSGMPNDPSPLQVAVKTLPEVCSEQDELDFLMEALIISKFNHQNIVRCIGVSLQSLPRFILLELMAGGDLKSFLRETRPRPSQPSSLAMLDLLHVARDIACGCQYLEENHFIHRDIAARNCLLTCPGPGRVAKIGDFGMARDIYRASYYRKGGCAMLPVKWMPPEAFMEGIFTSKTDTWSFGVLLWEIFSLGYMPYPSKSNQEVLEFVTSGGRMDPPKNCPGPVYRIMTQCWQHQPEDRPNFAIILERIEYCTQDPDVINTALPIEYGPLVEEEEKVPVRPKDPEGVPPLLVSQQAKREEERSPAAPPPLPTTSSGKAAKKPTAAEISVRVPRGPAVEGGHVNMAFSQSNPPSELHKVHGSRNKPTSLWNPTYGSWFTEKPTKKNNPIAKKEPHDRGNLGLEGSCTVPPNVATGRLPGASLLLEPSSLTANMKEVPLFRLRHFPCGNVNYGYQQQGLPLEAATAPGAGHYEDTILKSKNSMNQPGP

AURKA = AURKA (Homo sapiens (Human), UniProt O14965)
DYRK2 = DYRK2 (Homo sapiens (Human), UniProt Q92630)
AKT1 = AKT1 (Homo sapiens (Human), UniProt P31749)
BRAF(V600E) = BRAF(V600E) (Homo sapiens (Human), UniProt P15056, V600E)
BRAF(V600E), sequence (P15056 whole entry V600E): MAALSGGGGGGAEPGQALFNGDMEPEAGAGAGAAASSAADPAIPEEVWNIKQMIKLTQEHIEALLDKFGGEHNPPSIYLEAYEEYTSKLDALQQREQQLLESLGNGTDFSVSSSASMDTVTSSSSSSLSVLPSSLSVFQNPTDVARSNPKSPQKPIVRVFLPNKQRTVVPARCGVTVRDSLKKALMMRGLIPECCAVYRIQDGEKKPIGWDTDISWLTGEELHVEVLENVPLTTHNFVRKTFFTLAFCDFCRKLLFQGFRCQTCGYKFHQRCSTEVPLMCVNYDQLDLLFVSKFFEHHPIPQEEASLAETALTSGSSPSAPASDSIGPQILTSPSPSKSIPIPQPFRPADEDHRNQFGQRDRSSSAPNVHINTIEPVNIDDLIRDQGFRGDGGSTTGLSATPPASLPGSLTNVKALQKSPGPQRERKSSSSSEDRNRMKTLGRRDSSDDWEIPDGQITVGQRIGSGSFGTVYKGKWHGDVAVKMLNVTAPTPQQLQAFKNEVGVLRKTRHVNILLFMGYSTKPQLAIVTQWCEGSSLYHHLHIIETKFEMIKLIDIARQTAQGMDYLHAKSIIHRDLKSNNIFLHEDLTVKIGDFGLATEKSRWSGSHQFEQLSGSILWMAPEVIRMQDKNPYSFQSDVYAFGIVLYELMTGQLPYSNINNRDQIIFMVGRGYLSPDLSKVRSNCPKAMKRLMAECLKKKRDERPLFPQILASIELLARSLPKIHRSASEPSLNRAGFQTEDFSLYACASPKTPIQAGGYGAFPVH

SGK (SGK1) = SGK (SGK1) (Homo sapiens (Human), UniProt O00141)
GAK = GAK (Homo sapiens (Human), UniProt O14976)
AURKC = AURKC (Homo sapiens (Human), UniProt Q9UQB9)
MARK4 = MARK4 (Homo sapiens (Human), UniProt Q96L34)
p38-delta (MAPK13) = p38-delta (MAPK13) (Homo sapiens (Human), UniProt O15264)
p38-delta (MAPK13), sequence (O15264 whole entry): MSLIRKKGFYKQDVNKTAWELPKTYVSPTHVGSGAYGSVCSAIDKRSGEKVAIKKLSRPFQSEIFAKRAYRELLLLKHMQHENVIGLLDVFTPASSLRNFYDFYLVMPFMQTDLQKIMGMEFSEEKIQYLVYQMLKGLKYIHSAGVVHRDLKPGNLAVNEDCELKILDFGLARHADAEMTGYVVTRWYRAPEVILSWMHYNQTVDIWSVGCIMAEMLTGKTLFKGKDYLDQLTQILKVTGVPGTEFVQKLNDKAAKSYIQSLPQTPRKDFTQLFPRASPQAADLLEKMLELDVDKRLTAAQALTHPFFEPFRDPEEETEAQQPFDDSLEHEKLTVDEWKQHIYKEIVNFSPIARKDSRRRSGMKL

CSK = CSK (Homo sapiens (Human), UniProt P41240)
INSRR = INSRR (Homo sapiens (Human), UniProt P14616)
YANK1 (STK32A) = YANK1 (STK32A) (Homo sapiens (Human), UniProt Q8WU08)
KIT = KIT (Homo sapiens (Human), UniProt P10721)
DMPK2 (CDC42BPG) = DMPK2 (CDC42BPG) (Homo sapiens (Human), UniProt Q6DT37)
[1] = biological target: EGFR(L747-E749del, A750P) (Homo sapiens (Human), UniProt P00533, A750P/DEL747-749)
WNK2 = WNK2 (Homo sapiens (Human), UniProt Q9Y3S1)
[2] = biological target: GCN2(Kin.Dom.2, S808G) (EIF2AK4) (Homo sapiens (Human), UniProt Q9P2K8, S808G)

## CN1CCN(C(=O)c2ccc3cc(CCNc4ccnc5ccc(C#N)cc45)ccc3c2)CC1 [compound 6148, 4-((2-(6-(4-methylpiperazine-1-carbonyl)naphthalen-2-yl)ethyl)amino)quinoline-6-carbonitrile]
FER
  remaining binding at 2 µM: 91%
PRKG2
  remaining binding at 2 µM: 84%
PIK3CA(C420R)
  remaining binding at 2 µM: 73%
LIMK2
  remaining binding at 2 µM: 93%
AMPK-alpha2 (PRKAA2)
  remaining binding at 2 µM: 42%
PRKCI
  remaining binding at 2 µM: 89%
CSNK1E
  remaining binding at 2 µM: 81%
ASK1 (MAP3K5)
  remaining binding at 2 µM: 91%
IGF1R
  remaining binding at 2 µM: 94%
CAMK1B (PNCK)
  remaining binding at 2 µM: 92%
WNK4
  remaining binding at 2 µM: 69%
PIK3CB
  remaining binding at 2 µM: 64%
IRAK3
  remaining binding at 2 µM: 94%
TLK1
  remaining binding at 2 µM: 94%
KIT(D816V)
  remaining binding at 2 µM: 100%
EPHA7
  remaining binding at 2 µM: 91%
WNK3
  remaining binding at 2 µM: 75%
LIMK1
  remaining binding at 2 µM: 95%
MAP4K5
  remaining binding at 2 µM: 95%
PRP4 (PRPF4B)
  remaining binding at 2 µM: 71%
PIK3CA(I800L)
  remaining binding at 2 µM: 72%
ALK
  remaining binding at 2 µM: 89%
AURKA
  remaining binding at 2 µM: 88%
DYRK2
  remaining binding at 2 µM: 68%
AKT1
  remaining binding at 2 µM: 89%
BRAF(V600E)
  remaining binding at 2 µM: 89%
SGK (SGK1)
  remaining binding at 2 µM: 50%
GAK
  remaining binding at 2 µM: 100%
AURKC
  remaining binding at 2 µM: 100%
MARK4
  remaining binding at 2 µM: 78%
p38-delta (MAPK13)
  remaining binding at 2 µM: 97%
CSK
  remaining binding at 2 µM: 85%
INSRR
  remaining binding at 2 µM: 88%
YANK1 (STK32A)
  remaining binding at 2 µM: 76%
KIT
  remaining binding at 2 µM: 95%
DMPK2 (CDC42BPG)
  remaining binding at 2 µM: 83%
[1]
  remaining binding at 2 µM: 77%
WNK2
  remaining binding at 2 µM: 59%
[2]
  remaining binding at 2 µM: 93%
